Assay results taken from US20080199423A1, “Methods of Using Apo2l Receptor Agonists and Ink Cell Activators” (GENENTECH, INC., priority 2004, published 2008).

Tested on: B16BL10 melanoma cells
Assay: 51Cr release cytotoxicity assay on B16 melanoma target cells
Assay type: cell-based, mouse
Conditions: NK cells stimulated with agent
Method: Purified NK cells were treated with poly(I:C) or R-848 and incubated with B16BL10 melanoma cells (ATCC) at the indicated ratios. Purified NK cells stimulated with R-848 were incubated with HCT116 target cells (ATCC) at the indicated ratios. The role of Apo2L/TRAIL in lysis assays in panels B and C was determined by preincubation with neutralizing (5C2) and non-neutralizing (1D1) anti-Apo2L/TRAIL mAbs. The data has been confirmed with NK cells from at least 3 donors and less that 5% SD was observed.
For the cytotoxicity assays, target cells were labeled with 100 mCi ^51Cr for 1 hour at 37° C. and then washed 3 times before use. 10^4 target cells were added to varying numbers of effector cells at the indicated ratios and incubated in duplicate wells for 4 hours at 37° C., 5% CO2, and supernatants were used to determine ^51Cr released using a Gamma counter. The cytotoxicity assays were performed in round bottom 96 well plates and the percent specific lysis was calculated as 100× (experimental cpm-spontaneous cpm)/(total cpm-spontaneous cpm). The role of Apo2L/TRAIL expressed by NK cells in the lysis of target cells was evaluated using anti-Apo2L/TRAIL mAbs (5C2 and 1D1, Genentech, Inc.). Isotype control antibodies were obtained from BD Biosciences.

poly(I:C)
Killing of B16 melanoma cells by stimulated NK cells: efficiently killed
